The values below come from patent US20060069132A1, “Azolecarboxamide herbicides” (priority 2004, published 2006).

Common to all, as to assay: Test A pre-/postemergence herbicide test
One experiment has as its system barnyardgrass. The experiment is classed as in vivo, Echinochloa crus-galli. From the text: (§1) Seeds of plant species selected from barnyardgrass (Echinochloa crus-galli (L.) Beauv.), downy bromegrass (Bromus tectorum L.), large crabgrass (Digitaria sanguinalis (L.) Scop.), giant foxtail (Setaria faberi Herrm.), morningglory (Ipomoea spp.), redroot pigweed (Amaranthus retroflexus L.) and velvetleaf (Abutilon theophrasti Medik.) were planted into a sandy loam soil and treated preemergence with a directed soil spray using test chemicals formulated in a non-phytotoxic solvent mixture which included a surfactant. At the same time plants selected from these species were also treated postemergence by spraying to runoff with test chemicals formulated.
(§2) Plants ranged in height from 2 to 10 cm and were in the one- to two-leaf stage for the postemergence treatment. Treated plants and untreated controls were maintained in a greenhouse for approximately ten days, after which time all treated plants were compared to untreated controls and visually evaluated for injury. Plant response ratings, summarized in Table A, are based on a 0 to 100 scale where 0 is no effect and 100 is complete control. A dash (-) response means no test results.

A further experiment concerns large crabgrass. The experiment is classed as in vivo, Digitaria sanguinalis.
Excerpt: as §1, §2

Another experiment deals with giant foxtail. The experiment is classed as in vivo, Setaria faberi.
Excerpt: as §1, §2

The next experiment relates to morningglory. In kind it is in vivo, Ipomoea spp.
Excerpt: as §1, §2

Another experiment deals with redroot pigweed. The experiment is classed as in vivo, Amaranthus retroflexus.
Excerpt: as §1, §2

The next experiment deals with velvetleaf. In kind it is in vivo, Abutilon theophrasti.
Excerpt: as §1, §2

Where [1] appears, read: Postemergence, 500 g ai/ha, 0 to 100 scale, 0 no effect, 100 complete control.
Where [2] appears, read: Postemergence, 2000 g ai/ha, 0 to 100 scale, 0 no effect, 100 complete control.
Where [3] appears, read: Preemergence, 500 g ai/ha, visual rating, 0 to 100 scale (0 no effect, 100 complete control).
The mark [4] stands for this setting: Preemergence, 2000 g ai/ha, visual rating, 0 to 100 scale (0 no effect, 100 complete control).
Setting [5] is: Preemergence, 2000 g ai/ha, 0 to 100 scale, 0 no effect, 100 complete control.
[6] abbreviates: Postemergence, 125 g ai/ha, 0 to 100 scale, 0 no effect, 100 complete control.
[7] abbreviates: preemergence, 125 g ai/ha, visual injury, 0 to 100 scale (0 no effect, 100 complete control).
The mark [8] stands for this setting: preemergence, 500 g ai/ha, visual injury, 0 to 100 scale (0 no effect, 100 complete control).

On to `CC(=NO)c1cccc(NC(=O)c2cc(C(F)(F)F)nn2C)c1` [Compound 103], for which the figures for the “Barnyardgrass plant response rating” value in the experiment with barnyardgrass (setting [1]), in the experiment with barnyardgrass (setting [3]) and in the experiment with barnyardgrass (setting [4]) were 45, 55 and 85, respectively. The “Plant response rating, Barnyardgrass” value in the experiment on barnyardgrass (setting [2]) was 75. Further, the “Crabgrass, Large plant response rating” value in the experiment on large crabgrass (setting [1]) is recorded as 15; in the experiment with large crabgrass (setting [3]) it was 35; with large crabgrass (setting [4]), 55. In addition, the “Plant response rating, Crabgrass, Large” value in the experiment on large crabgrass (setting [2]) is 30. The “Foxtail, Giant plant response rating” value in the experiment on giant foxtail (setting [1]) came out at 10; with giant foxtail (setting [3]), 0; in the experiment on giant foxtail (setting [4]), 15. Besides, the “Plant response rating, Foxtail, Giant” value in the experiment with giant foxtail (setting [2]) was found to be 30. Also, the “Morningglory plant response rating” value was determined as 25 with morningglory (setting [1]), 0 in the experiment with morningglory (setting [3]) and 10 in the experiment with morningglory (setting [4]). Besides, the “Plant response rating, Morningglory” value in the experiment on morningglory (setting [2]) was 35. Moreover, the “Pigweed plant response rating” value was 85 with redroot pigweed (setting [1]), 80 in the experiment with redroot pigweed (setting [3]) and 95 in the experiment with redroot pigweed (setting [4]). Besides, in the experiment on redroot pigweed (setting [2]), the “Plant response rating, Pigweed” value turned out to be 100. Further, the “Velvetleaf plant response rating” value in the experiment with velvetleaf (setting [1]) came to 10; in the experiment with velvetleaf (setting [3]), 20; in the experiment on velvetleaf (setting [4]) it was 20. The “Plant response rating, Velvetleaf” value in the experiment with velvetleaf (setting [2]) came to 45.
`Cn1nc(C(C)(C)C)cc1C(=O)Nc1cccc2c1CNC2=O` [Compound 53]: the “Plant response rating, Barnyardgrass” value with barnyardgrass (setting [1]) and in the experiment on barnyardgrass (setting [2]) was 0 each time. Further, the “Barnyardgrass plant response rating” value in the experiment on barnyardgrass (setting [3]) is recorded as 0; in the experiment on barnyardgrass (setting [5]), 10. Besides, the results for the “Plant response rating, Crabgrass, Large” value in the experiment with large crabgrass (setting [1]) and in the experiment on large crabgrass (setting [2]) were 5 and 0, respectively. The “Crabgrass, Large plant response rating” value was determined as 0 with large crabgrass (setting [3]) and 40 in the experiment with large crabgrass (setting [5]). Besides, the “Plant response rating, Foxtail, Giant” value with giant foxtail (setting [1]) and in the experiment with giant foxtail (setting [2]) was 0 throughout. The “Foxtail, Giant plant response rating” value in the experiment with giant foxtail (setting [3]) and with giant foxtail (setting [5]) was 0 in each case. Further, the “Plant response rating, Morningglory” value with morningglory (setting [1]) and in the experiment on morningglory (setting [2]) was 0 each time. Further, the “Morningglory plant response rating” value in the experiment on morningglory (setting [3]) and with morningglory (setting [5]) was 0 in each case. For the same compound, the “Plant response rating, Pigweed” value in the experiment on redroot pigweed (setting [1]) and in the experiment with redroot pigweed (setting [2]) was 0 throughout. Also, the “Pigweed plant response rating” value with redroot pigweed (setting [3]) is 30; with redroot pigweed (setting [5]), 40. For the same compound, in the experiment on velvetleaf (setting [2]), the “Plant response rating, Velvetleaf” value was found to be 0. For the same compound, the “Velvetleaf plant response rating” value in the experiment on velvetleaf (setting [3]) and with velvetleaf (setting [5]) was 0 in each case.
Take `CCNC(=O)c1ccc(F)c(NC(=O)c2nc(C(C)(C)C)nn2CC)c1` [Compound 447]: the “Barnyardgrass plant response rating” value in the experiment on barnyardgrass (setting [6]) amounted to 25; in the experiment with barnyardgrass (setting [1]), 70; in the experiment on barnyardgrass (setting [7]), 20; with barnyardgrass (setting [8]) it was 60. In addition, the “Crabgrass, Large plant response rating” value in the experiment with large crabgrass (setting [6]) turned out to be 10; in the experiment with large crabgrass (setting [1]), 25; with large crabgrass (setting [7]), 0; in the experiment on large crabgrass (setting [8]) it was 35. The “Foxtail, Giant plant response rating” value in the experiment with giant foxtail (setting [6]) is on record as 10; in the experiment on giant foxtail (setting [1]), 40; in the experiment on giant foxtail (setting [7]) it was 10; in the experiment with giant foxtail (setting [8]), 45. For the same compound, the “Morningglory plant response rating” value in the experiment on morningglory (setting [6]) was 5; in the experiment on morningglory (setting [1]), 10; in the experiment on morningglory (setting [7]), 0; in the experiment on morningglory (setting [8]), 0. Besides, the “Pigweed plant response rating” value stood at 40 in the experiment with redroot pigweed (setting [6]), 50 in the experiment on redroot pigweed (setting [1]), 10 with redroot pigweed (setting [7]) and 50 in the experiment on redroot pigweed (setting [8]). Besides, the “Velvetleaf plant response rating” value with velvetleaf (setting [6]) was 10; with velvetleaf (setting [1]), 30; with velvetleaf (setting [7]), 0; with velvetleaf (setting [8]), 0.
